Measurements published in article PMC8136953 (Veterinary Medicine and Science, 2020).
Values joined by “and” are separate entries in the source; they are usually repeats but may differ in a detail not shown here. Equal values may be shown once. Read-outs that look alike come from different tables or passages of the source.

Key:
[1] = design: method as in Wrzesinski et al. (2006); conditions: 0‰, MO, 10 × 12d mg/kg fish, 916 g, 18–20 °C; ref Wrzesinski et al. (2006); cited from earlier work
[2] = 0‰, 25 °C, cited from earlier work
[3] = design: method as in Table 4; conditions: after dietary delivery, different environmental conditions; ref Table 4; cited from earlier work
[4] = design: method as in Park et al. (2006); conditions: 0‰, SO, 20 mg/kg fish, 280 g, 24 °C; ref Park et al. (2006); cited from earlier work
[5] = Plasma pharmacokinetics of FLO after a single dietary administration
Procedure: Apparently healthy European seabass averaging about 100 ± 12 g were obtained from a local fish farm (Selonda aquaculture S.A) and distributed in two cages (1 m^3) located within a 50 m^3 cement tank (85 fish/cage). Water was supplied by open flow and oxygen was provided continuously by bubbling air. The water temperature and salinity were 24 ± 1°C and 38‰, respectively. Fish were allowed to acclimate for 7 days prior to experimentation and fed a drug‐free commercial diet at 1.5% body weight (B.W.).
During the trial, the experimental diet was stored at 4°C and was left to obtain ambient temperature before delivery.
Sampling of fish was performed at predetermined time points during and post treatment (Figure 1) after anesthetization with clove oil (40 mg/L). […] At each sampling point, 10 fish were killed by a blow to the head and tissue samples were obtained. Approximately, 2 ml of blood was drawn with a needle (Microlance 23G 11/4 0.6 × 30; Becton Dickinson, Zaragoza, Spain) from the caudal vein at selected time points during treatment and transferred into heparinised test tubes. Plasma was separated from blood samples by centrifugation at 20,160 g for 10 min at 4°C. Moreover for the withdrawal study, muscle plus skin (approximately 5 g) were taken from the anterior dorsal region on days 1, 2, 3, 4 and 6 post treatment. All prepared tissue samples were immediately frozen and stored at −20°C until analysis.
Briefly, 1 ml of plasma sample was placed in a 10 ml polypropylene centrifuge tube with 500 μl of acetonitrile:water (35:65, v/v). […] The homogenised samples were centrifuged (8,000 g for 10 min) and the supernatant was transferred to a 15 ml polypropylene centrifuge tube. The extraction step was repeated twice. The combined extract was then evaporated to dryness at 40°C under a gentle stream of nitrogen. The residue was reconstituted by 1 ml of mobile phase solution. Five milliliter of hexane were added into the tube and after mixing it was subjected to centrifugation for 5 min at 2,150 g prior to the removal of the hexane layer. The afore‐mentioned de‐fatting step was also repeated twice. The water‐based phase was filtered using 0.22 μm nylon filter and the filtrate (200 μl) was then analysed by HPLC.
The column temperature was maintained at 30°C and the injected volume was 200 μl. As a mobile phase, (A) an aqueous solution of NaH2PO4 (0.01 M) containing 0.005 M sodium dodecyl sulphate and 0.1% triethylamine (pH 4.8 adjusted with 85% phosphoric acid) and (B) acetonitrile were used (A/B, 65:35, v/v). The flow rate was 1.0 ml/min.
The area under the concentration–time curve (AUC0‐∞) was determined using trapezoidal method and was extrapolated to infinity.

[6] = design: method as in Chang et al. (2019); conditions: 31‰, SO‐FA, 30 mg/kg fish, 615 g, ref Chang et al. (2019), cited from earlier work
[7] = design: method as in Yanong et al. (2005); conditions: 0‰, SO, 50 mg/kg fish, 19 g, 23–25 °C; ref Yanong et al. (2005); cited from earlier work
[8] = design: method as in Lim et al. (2010); conditions: ref Lim et al. (2010), cited from earlier work
[9] = design: method as in Xie et al. (2013); conditions: 0‰, SO‐FA, 20 mg/kg fish, 71 g, 25 °C; ref Xie et al. (2013); cited from earlier work
[10] = design: method as in Kosoff et al. (2009); conditions: 26–30‰, MO, 10 × 10d mg/kg fish, 384–426 g, 20–25 °C; ref Kosoff et al. (2009); cited from earlier work
[11] = 0‰, cited from earlier work
[12] = design: method as in de Ocenda et al. (2017); conditions: 35‰, SO‐FA, 100 mg/kg fish, 101 g, 16 °C; ref de Ocenda et al. (2017); cited from earlier work
[13] = 33‰, SO‐FA, cited from earlier work
[14] = MO‐FA, 10 × 10d mg/kg fish, 612 g, ref Gaunt et al. (2013)
[15] = SO‐FA, 10 mg/kg fish, ref Gaunt et al. (2012)
[16] = European seabass (Dicentrarchus labrax), plasma, oral, 10 mg/kg
[17] = 33‰, MO, 20 × 3d mg/kg fish, 380 g, 19 °C
[18] = MO‐FA, 10 × 5d mg/kg fish, 330 g, 10 °C, ref Yang et al. (2020)
[19] = MO‐FA, 10 × 5d mg/kg fish, 330 g, 25 °C, ref Yang et al. (2020)
[20] = SO‐FA, 10 mg/kg fish, 260 g, 10 °C, ref Yang et al. (2019)
[21] = SO‐FA, 10 mg/kg fish, 260 g, 25 °C, ref Yang et al. (2019)
[22] = SO‐FA, 40 mg/kg fish, 260 g, 25 °C, ref Zhao et al. (2011)
[23] = 24 mg/kg fish, 125 g, 23 °C, ref Feng et al. (2016)
[24] = 5–10 mg/kg fish, 103–301 g, 29 °C, ref Feng et al. (2018)

In the case of `CS(=O)(=O)c1ccc([C@@H](O)[C@@H](CF)NC(=O)C(Cl)Cl)cc1` [FLO, florfenicol], the WT [1] is listed as 96 h, the C max [2, 14] is listed as 9.7 µg/mL and the T max [2, 14] is listed as 8 h. For the same compound, the C max [2, 15] was 7.6 µg/mL, the T max [2, 15] was 9 h and the “t 1/2b” value [2, 15] was 9.1 h. The “Maximum plasma concentration in other farmed fish species” value [3] was 1.8 to 55 µg/mL, the C max [4] was 9.6 µg/mL and the T max [4] was 8 h. For the same compound, the Tmax [5, 16] was 4 h, the concentration at 24 hr [5, 16] was 550 ng/mL and the AUC ([5]; European seabass (Dicentrarchus labrax), plasma, po, 10 mg/kg) was 34700 ng·h/mL. The half-life ([5]; in vivo, po, 10 mg/kg) was 780 min, the AUC ([5]; plasma, po, 10 mg/kg) was 34700 ng·h/mL and the Maximum plasma concentration ([5]; single dietary administration 10 mg/kg, plasma, 24°C) was 1.6 µg/mL and 1.64 µg/mL. The C max ([6]; 15 °C) was 9.1 µg/mL, the “t 1/2b” value ([6]; 15 °C) was 14.3 h and the T max ([6]; 15–20 °C) was 12 h. The C max ([6]; 20 °C) was 12.2 µg/mL, the “t 1/2b” value ([6]; 20 °C) was 9.7 h and the C max [7] was 2.6 µg/mL. For the same compound, the T max [7] was 5 h, the C max [8, 17] was 12.2 µg/mL and the WT [8, 17] was 189 h. The Tissue distribution ([8]; multiple oral 20 mg kg^−1 day^−1 for three consecutive days) was “higher tissue concentrations of FLO in gills than in the other tested tissue samples”, the C max [9] was 8.4 µg/mL and the T max [9] was 5 h. For the same compound, the “t 1/2b” value [9] was 13.5 h, the C max [10] was 1.8 to 3.5 µg/mL and the WT [10] was 17 to 62 h. For the same compound, the C max [11, 18] was 4.0 µg/mL, the “t 1/2b” value [11, 18] was 19.9 h and the C max [11, 19] was 1.7 µg/mL. The “t 1/2b” value [11, 19] was 12.9 h, the C max [11, 20] was 2.4 µg/mL and the T max [11, 20] was 2.8 h. For the same compound, the “t 1/2b” value [11, 20] was 22.9 h, the C max [11, 21] was 3.5 µg/mL and the T max [11, 21] was 3.7 h. The “t 1/2b” value [11, 21] was 9.6 h, the C max [11, 22] was 29.3 µg/mL and the T max [11, 22] was 1.6 h. The “t 1/2b” value [11, 22] was 2.2 h, the C max [12] was 55.4 µg/mL and the T max [12] was 12 h. The C max [13, 23] was 28 µg/mL, the “t 1/2b” value [13, 23] was 11.6 h and the C max [13, 24] was 6 to 13 µg/mL. The “t 1/2b” value [13, 24] was 8.5 to 9.3 h.
